These results are taken from US8796324B2, “Substituted 2-acetamido-5-aryl-1,2,4-triazolones and use thereof” (Bayer Intellectual Property GmbH, priority 2009, dated 2014).

The target of one assay is T1, human V2 receptor (Homo sapiens, UniProt P30518).
T1 construct: expressed in transfected cells; host or cells: CHO K1 (constitutively expressing modified aequorin; co-transfected with promiscuous G-alpha-16)
Description: Cellular in vitro assay for determining the vasopressin receptor activity (aequorin luminescence). The note with it: CHO cell line transfected with the human V2 receptor (and Gα16); agonist [Arg8]-vasopressin; read-out: IC50 hV2. Type of assay: cell-based. The text has this: (§1) B-1. Cellular In Vitro Assay for Determining the Vasopressin Receptor Activity
(§2) The identification of agonists and antagonists of the V1a and V2 vasopressin receptors from humans and rats and also the quantification of the activity of the substances described here took place using recombinant cell lines. These cells derive originally from a hamster ovary epithelial cell (Chinese Hamster Ovary, CHO K1, ATCC: American Type Culture Collection, Manassas, Va. 20108, USA). The test cell lines constitutively express a modified form of the calcium-sensitive photoprotein aequorin, which, after reconstitution with the cofactor coelenterazine, emits light when there are increases in the free calcium concentration (Rizzuto R., Simpson A. W., Brini M., Pozzan T.; Nature 358 (1992) 325-327). In addition, the cells are stably transfected with the human or rat V1a or V2 receptors. In the case of the Gs-coupling V2 receptors, the cells are stably transfected with a further gene, which codes for the promiscuous Gα16 protein (Amatruda T. T., Steele D. A., Slepak V. Z., Simon M. I., Proc. Nat. Acad. Sci. USA 88 (1991), 5587-5591), either independently or as a fusion gene. The resulting vasopressin receptor test cells react to stimulation of the recombinantly expressed vasopressin receptors by intracellular release of calcium ions, which can be quantified by the resulting aequorin luminescence using a suitable luminometer (Milligan G., Marshall F., Rees S., Trends in Pharmaco. Sci. 17 (1996) 235-237).
(§3) On the day before the assay, the cells are plated out in culture medium (DMEM, 10% FCS, 2 mM glutamine, 10 mM HEPES) in 384-well microtiter plates and kept in a cell incubator (96% humidity, 5% v/v carbon dioxide, 37° C.). On the day of the assay, the culture medium is replaced by a Tyrode solution (140 mM sodium chloride, 5 mM potassium chloride, 1 mM magnesium chloride, 2 mM calcium chloride, 20 mM glucose, 20 mM HEPES), which additionally contains the cofactor coelenterazine (50 μM), and the microtiter plate is then incubated for a further 3-4 hours. The test substances in various concentrations are placed for 10 to 20 minutes in the wells of the microtiter plate before the agonist [Arg8]-vasopressin is added, and the resulting light signal is measured immediately in the luminometer. The IC50 values are calculated using the GraphPad PRISM computer program (Version 3.02).
(§4) The table below lists representative IC50 values for the compounds of the invention on the cell line transfected with the human V1a or V2 receptor: […]

A further assay has as its target T2, human V1a receptor (Homo sapiens, UniProt P37288).
T2 construct: expressed in transfected cells; host or cells: CHO K1 (constitutively expressing modified aequorin)
The assay is described as above. The format is cell-based. The following applies: CHO cell line transfected with the human V1a receptor; agonist [Arg8]-vasopressin; read-out: IC50 hV1a.
Description: as §1, §2, §3, §4

T1 sequence (P30518 whole entry): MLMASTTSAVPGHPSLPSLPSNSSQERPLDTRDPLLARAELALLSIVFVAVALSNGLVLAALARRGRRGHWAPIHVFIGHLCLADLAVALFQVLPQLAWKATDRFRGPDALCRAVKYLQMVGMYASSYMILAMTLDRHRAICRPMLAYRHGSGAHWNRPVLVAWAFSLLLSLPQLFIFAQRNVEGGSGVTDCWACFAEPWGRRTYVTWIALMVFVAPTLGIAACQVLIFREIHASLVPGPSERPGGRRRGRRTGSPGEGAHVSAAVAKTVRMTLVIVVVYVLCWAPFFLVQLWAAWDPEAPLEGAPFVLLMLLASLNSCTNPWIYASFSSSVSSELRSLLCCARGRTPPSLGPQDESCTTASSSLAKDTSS
T2 sequence (P37288 whole entry): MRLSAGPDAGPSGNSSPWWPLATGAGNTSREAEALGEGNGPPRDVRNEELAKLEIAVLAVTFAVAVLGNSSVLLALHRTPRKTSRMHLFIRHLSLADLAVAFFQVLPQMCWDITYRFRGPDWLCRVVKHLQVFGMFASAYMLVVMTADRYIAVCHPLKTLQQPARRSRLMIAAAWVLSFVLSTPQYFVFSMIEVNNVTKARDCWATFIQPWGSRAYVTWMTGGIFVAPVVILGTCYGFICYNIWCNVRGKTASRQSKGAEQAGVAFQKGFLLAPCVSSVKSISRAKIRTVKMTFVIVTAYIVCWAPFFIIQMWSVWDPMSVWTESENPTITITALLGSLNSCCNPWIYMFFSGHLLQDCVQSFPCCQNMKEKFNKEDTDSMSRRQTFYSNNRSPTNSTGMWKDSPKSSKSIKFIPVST

Regarding `C=CCn1c(-c2ccc(Cl)cc2)nn(CC(=O)NC(CO)c2cccc(Cl)c2F)c1=O` (centres unmarked) [Example 168], the results for the IC50 on human V2 receptor and on human V1a receptor were 76 nM and 87 nM, respectively.
The corresponding values for `Cc1csc(-c2nn(CC(=O)NC(CO)c3cccc(Cl)c3F)c(=O)n2CC(C)C)c1Cl` (centres unmarked) [Example 172] are 136 nM and 91 nM.
Turning to `O=C(Cn1nc(-c2ccc(Cl)cc2)n(CC2CCCCC2)c1=O)NC(CO)c1cccc(Cl)c1F` (centres unmarked) [Example 182], the figures for the IC50 on human V2 receptor and at human V1a receptor were 28 nM and 304 nM, respectively.
Regarding `O=C(Cn1nc(-c2ccc(Cl)cc2)n(Cc2ccccc2F)c1=O)NC(CO)c1cccc(F)c1F` (centres unmarked) [Example 184], the figures for the IC50 at human V2 receptor and on human V1a receptor were 26.6 nM and 72 nM, respectively.
The like results for `O=C(Cn1nc(-c2ccc(Cl)s2)n(Cc2ccccc2F)c1=O)NC(CO)c1cccc(F)c1F` (centres unmarked) [Example 185] were, in that order, 45 nM and 55 nM.
The like results for `COc1ccccc1C(CCOC(N)=O)NC(=O)Cn1nc(-c2ccc(Cl)cc2)n(C[C@H](O)C(F)(F)F)c1=O` (stereo partly drawn) [Example 188, 3-[({3-(4-Chlorophenyl)-5-oxo-4-[(2S)-3,3,3-trifluoro-2-hydroxypropyl]-4,5-dihydro-1H-1,2,4-triazol-1-yl}acetyl)amino]-3-(2-methoxyphenyl)propyl carbamate] were, in that order, 9.9 nM and 8.2 nM.
The corresponding values for `NC(=O)OCC(NC(=O)Cn1cc(-c2ccc(Cl)cc2)n(CC(O)C(F)(F)F)c1=O)c1ccccc1C(F)(F)F` (centres unmarked) [Example 207, 2-({[4-(4-Chlorophenyl)-2-oxo-3-(3,3,3-trifluoro-2-hydroxypropyl)-2,3-dihydro-1H-imidazol-1-yl]acetyl}amino)-2-[2-(trifluoromethyl)phenyl]ethyl carbamate] are 101 nM and 3.3 nM.

Usually IC50 stands for the concentration needed to halve the response being measured.
